Assay results published in PMC6838683, “Discovery of Human Signaling Systems: Pairing Peptides to G Protein-Coupled Receptors” (Cell, 2019).
Residues, ends and D or L forms follow the SMILES beside them.

Experiments:
[1] = biological target: T1, BB3 (Homo sapiens, UniProt P32247); assay: Dynamic mass redistribution (DMR), concentration-response; assay type: cell-based
T1 construct: hIL-2Ra signal peptide (N); expressed in transfected cells
T1 sequence (P32247 2-399 limits assumed): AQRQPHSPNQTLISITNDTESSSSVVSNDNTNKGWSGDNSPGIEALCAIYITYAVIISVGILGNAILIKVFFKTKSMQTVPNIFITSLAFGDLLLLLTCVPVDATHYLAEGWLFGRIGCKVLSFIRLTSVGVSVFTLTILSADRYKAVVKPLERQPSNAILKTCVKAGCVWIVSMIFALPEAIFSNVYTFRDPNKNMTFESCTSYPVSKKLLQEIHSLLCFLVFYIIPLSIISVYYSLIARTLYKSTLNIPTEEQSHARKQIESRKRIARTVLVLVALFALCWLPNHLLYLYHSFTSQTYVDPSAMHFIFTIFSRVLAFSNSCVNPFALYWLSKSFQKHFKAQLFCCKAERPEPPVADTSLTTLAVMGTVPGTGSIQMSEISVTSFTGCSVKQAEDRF

[2] = biological target: T1, BB3; assay: Real-time receptor internalization (TR-FRET), concentration-response; assay type: cell-based
[3] = biological target: T2, BB3 (Homo sapiens, UniProt P32247); assay: β-arrestin recruitment (Tango), validation; assay type: cell-based
T2 construct: host or cells: HTLA cells (HEK293-derived)
T2 sequence (P32247 1-399): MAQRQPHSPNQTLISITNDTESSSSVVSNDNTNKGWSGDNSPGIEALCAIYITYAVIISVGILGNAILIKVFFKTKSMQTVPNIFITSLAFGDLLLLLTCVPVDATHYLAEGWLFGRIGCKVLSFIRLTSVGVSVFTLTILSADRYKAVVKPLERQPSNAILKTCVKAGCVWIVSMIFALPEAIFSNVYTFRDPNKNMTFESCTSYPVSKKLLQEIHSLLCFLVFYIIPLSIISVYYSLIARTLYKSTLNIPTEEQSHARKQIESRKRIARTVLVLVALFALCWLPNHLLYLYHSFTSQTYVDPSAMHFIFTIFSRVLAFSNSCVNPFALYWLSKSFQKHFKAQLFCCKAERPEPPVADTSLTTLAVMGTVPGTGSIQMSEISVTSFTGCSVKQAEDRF
Description: The peptide library was additionally screened against 120 GPCR targets in parallel, including all available orphan receptors and 27 known class A peptide receptors using the Tango assay platform ([Kroeze et al., 2015]). Briefly, HTLA cells (a HEK293 cell line stably expressing a tTA-dependent luciferase reporter and a β-arrestin2-TEV fusion gene) were plated 10,000 cells/well in poly-L-lysine–coated clear-bottom white 384-well plates in DMEM supplemented with 10% FBS, 100 U/ml penicillin and 100 μg/ml streptomycin, 2 μg/ml puromycin and 100 μg/ml hygromycin B. 24 hr later, cells were transfected with Tango GPCR constructs using the calcium phosphate method ([Jordan et al., 1996]). The next day, culture medium was changed to DMEM + 1% dFBS and 10 μM peptides were added for overnight stimulation. Bright-Glo solution (Promega) was incubated for 15–20 min at room temperature, and luminescence was counted using a Trilux luminescence counter (Wallac).
For subsequent peptide validation experiments using Tango assays, HTLA cells were transiently transfected in 10 cm dishes with the receptor of interest using polyethylenimine (PEI) ([Longo et al., 2013]). After 24 hr, 25,000 cells/well were plated in clear bottom, white-walled 384-well plates. Assays were performed as described above, with luminescence measured using an EnSpire 2300 Multimode plate reader (PerkinElmer). Luminescence counts were exported into Excel and were analyzed using GraphPad Prism 7.

[4] = biological target: T1, BB3; assay: IP1 accumulation (Gq/11), HTRF; assay type: cell-based; conditions: BB3, mean, SEM and n
[5] = system: 120 GPCR targets, including all available orphan receptors and 27 known class A peptide receptors; assay: Peptide library screen, β-arrestin recruitment (Tango, fold change, 10 μM); assay type: cell-based, human; conditions: repeat hitters of the peptide library screen; the value names the known receptor(s) confirmed in the β-arrestin recruitment (Tango) screen
Outline: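 HTLA cells (HEK293 with tTA-dependent luciferase and β-arrestin2-TEV) transiently transfected with Tango GPCR constructs, then stimulated overnight with 10 μM peptides in 1% dFBS medium. Luciferase luminescence read after 15–20 min Bright-Glo incubation at room temperature.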

[6] = biological target: T3, OPRK1 (Homo sapiens, UniProt P41145); assay: β-arrestin recruitment (Tango), known peptide receptors; assay type: cell-based; conditions: mean
T3 construct: host or cells: HTLA cells (HEK293-derived)

[7] = system: GPR68; assay: Repeat of proposed literature pairing (mass redistribution and/or internalization); assay type: cell-based, human; conditions: target GPR68
[8] = biological target: T4, NPY5 (Homo sapiens, UniProt Q15761); assay: β-arrestin recruitment (Tango), known peptide receptors; assay type: cell-based; conditions: NPY5R; Emax and pEC50 n.d.; n = 3
T4 construct: host or cells: HTLA cells (HEK293-derived)
T4 sequence (Q15761 1-445): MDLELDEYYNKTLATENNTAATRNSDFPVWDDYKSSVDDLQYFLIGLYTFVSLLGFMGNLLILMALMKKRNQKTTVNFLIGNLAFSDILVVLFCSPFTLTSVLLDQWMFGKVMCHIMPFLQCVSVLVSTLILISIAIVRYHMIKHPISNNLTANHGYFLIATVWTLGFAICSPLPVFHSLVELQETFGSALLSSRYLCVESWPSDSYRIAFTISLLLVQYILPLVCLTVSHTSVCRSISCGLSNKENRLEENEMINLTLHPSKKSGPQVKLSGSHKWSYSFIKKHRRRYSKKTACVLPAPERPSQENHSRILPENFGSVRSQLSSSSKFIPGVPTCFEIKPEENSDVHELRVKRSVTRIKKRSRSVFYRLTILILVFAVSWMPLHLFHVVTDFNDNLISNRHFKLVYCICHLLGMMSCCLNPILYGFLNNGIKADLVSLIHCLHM

[9] = biological target: T5, GPR183 (Homo sapiens, UniProt P32249); assay: β-arrestin recruitment (Tango), indicative pairing; assay type: cell-based; conditions: mean, n = 3
T5 construct: host or cells: HTLA cells (HEK293-derived)

[10] = biological target: T6, MLNR (Homo sapiens, UniProt O43193); assay: β-arrestin recruitment (Tango), known peptide receptors; assay type: cell-based; conditions: endogenous ligand(s) included in peptide library
T6 construct: host or cells: HTLA cells (HEK293-derived)
From the text: (§1) Supplement mmc6.xlsx, sheet "Peptide GPCR controls" | column: Confirmed?

[11] = biological target: T7, GPR161 (Homo sapiens, UniProt Q8N6U8); assay: β-arrestin recruitment (Tango), indicative pairing; assay type: cell-based; conditions: mean, n = 3
T7 construct: host or cells: HTLA cells (HEK293-derived)

[12] = system: NPS; assay: β-arrestin recruitment (Tango), known peptide receptors; assay type: cell-based, human; conditions: NPS receptor, endogenous ligand(s) included in peptide library
From the text: as §1

[13] = system: NTSR2; assay: as above; assay type: cell-based, human; conditions: Neurotensin not cyclized
From the text: as §1

[14] = system: NTSR1; assay: as above; assay type: cell-based, human; conditions: Neurotensin not cyclized
From the text: (§2) Supplement mmc6.xlsx, sheet "Peptide GPCR controls" | column: Confirmed?; Notes

[15] = system: OPRL1; assay: as above; assay type: cell-based, human; conditions: endogenous ligand(s) included in peptide library
From the text: as §1

[16] = system: HCTR2; assay: as above; assay type: cell-based, human; conditions: endogenous ligand(s) included in peptide library
From the text: as §1

[17] = biological target: GPR55 (Homo sapiens, UniProt Q9Y2T6)
[18] = system: NPY4R; assay: β-arrestin recruitment (Tango), known peptide receptors; assay type: cell-based, human; conditions: endogenous ligand(s) included in peptide library
From the text: as §1

[19] = biological target: GPR1 (PathHunter cells) (UniProt P46091)
[20] = biological target: GPR1 (Tango construct) (human) (UniProt P46091)
[21] = system: PRRP; assay: β-arrestin recruitment (Tango), known peptide receptors; assay type: cell-based, human
From the text: as §2

[22] = biological target: human GPCRs; set-up: method as in Guide to Pharmacology database; conditions: receptor PRLHR (prlhr_human, P49683); max reported value; ref Guide to Pharmacology database; cited from earlier work
From the text: Supplement mmc1.xlsx, sheet "HumanGPCRLigands" | column: pKi_value; pKd_value; pEC50_value; pIC50_value

[23] = biological target: T8, GPR17 (Homo sapiens, UniProt Q13304); assay: β-arrestin recruitment (Tango), indicative pairing; assay type: cell-based; conditions: mean, n = 3
T8 construct: host or cells: HTLA cells (HEK293-derived)

[24] = biological target: T9, NPSR (Homo sapiens, UniProt Q6W5P4); assay: β-arrestin recruitment (Tango), known peptide receptors; assay type: cell-based; conditions: mean, n = 3
T9 construct: host or cells: HTLA cells (HEK293-derived)
From the text: (§3) Supplement mmc7.xlsx, sheet "Peptide validation data" | column: Emax; pEC50

[25] = biological target: T10, NOP (OPRL1) (Homo sapiens, UniProt P41146); assay: as above; assay type: cell-based; conditions: mean, n = 3
T10 construct: host or cells: HTLA cells (HEK293-derived)
From the text: as §3

[26] = biological target: T11, OPRD1 (Homo sapiens, UniProt P41143); assay: as above; assay type: cell-based; conditions: mean, n = 3
T11 construct: host or cells: HTLA cells (HEK293-derived)
From the text: as §3

T3 sequence (P41145 whole entry): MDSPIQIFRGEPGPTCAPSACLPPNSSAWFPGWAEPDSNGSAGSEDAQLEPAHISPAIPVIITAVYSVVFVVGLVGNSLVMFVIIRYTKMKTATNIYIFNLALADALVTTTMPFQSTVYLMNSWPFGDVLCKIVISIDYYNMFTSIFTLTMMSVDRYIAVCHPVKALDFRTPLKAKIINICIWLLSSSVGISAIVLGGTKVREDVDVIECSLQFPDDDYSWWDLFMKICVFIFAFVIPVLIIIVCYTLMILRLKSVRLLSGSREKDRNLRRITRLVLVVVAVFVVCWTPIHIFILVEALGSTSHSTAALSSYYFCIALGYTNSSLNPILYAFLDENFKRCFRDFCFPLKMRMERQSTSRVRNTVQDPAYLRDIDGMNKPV
T7 sequence (Q8N6U8 whole entry): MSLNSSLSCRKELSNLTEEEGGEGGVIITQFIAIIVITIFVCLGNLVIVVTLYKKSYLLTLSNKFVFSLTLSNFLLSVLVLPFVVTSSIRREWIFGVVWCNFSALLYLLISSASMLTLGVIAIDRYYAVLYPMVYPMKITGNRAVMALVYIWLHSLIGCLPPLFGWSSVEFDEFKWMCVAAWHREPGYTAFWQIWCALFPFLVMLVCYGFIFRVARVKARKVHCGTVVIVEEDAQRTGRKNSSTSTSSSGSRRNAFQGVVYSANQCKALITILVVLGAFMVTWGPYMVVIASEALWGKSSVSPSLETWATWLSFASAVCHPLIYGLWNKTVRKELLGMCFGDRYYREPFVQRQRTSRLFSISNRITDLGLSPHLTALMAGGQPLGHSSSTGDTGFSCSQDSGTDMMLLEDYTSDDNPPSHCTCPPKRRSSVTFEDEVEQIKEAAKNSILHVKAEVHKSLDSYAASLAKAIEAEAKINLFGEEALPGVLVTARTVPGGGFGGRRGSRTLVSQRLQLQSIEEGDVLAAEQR
T11 sequence (P41143 whole entry): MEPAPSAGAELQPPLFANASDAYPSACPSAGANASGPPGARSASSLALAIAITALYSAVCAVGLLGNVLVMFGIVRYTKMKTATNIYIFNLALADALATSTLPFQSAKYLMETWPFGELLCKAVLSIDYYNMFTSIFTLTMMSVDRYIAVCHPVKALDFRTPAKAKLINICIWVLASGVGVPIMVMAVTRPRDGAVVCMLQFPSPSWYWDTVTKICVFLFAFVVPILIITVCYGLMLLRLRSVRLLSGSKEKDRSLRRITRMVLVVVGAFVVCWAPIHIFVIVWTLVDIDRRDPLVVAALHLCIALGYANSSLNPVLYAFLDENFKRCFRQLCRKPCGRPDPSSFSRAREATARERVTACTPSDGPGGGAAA
T10 sequence (P41146 whole entry): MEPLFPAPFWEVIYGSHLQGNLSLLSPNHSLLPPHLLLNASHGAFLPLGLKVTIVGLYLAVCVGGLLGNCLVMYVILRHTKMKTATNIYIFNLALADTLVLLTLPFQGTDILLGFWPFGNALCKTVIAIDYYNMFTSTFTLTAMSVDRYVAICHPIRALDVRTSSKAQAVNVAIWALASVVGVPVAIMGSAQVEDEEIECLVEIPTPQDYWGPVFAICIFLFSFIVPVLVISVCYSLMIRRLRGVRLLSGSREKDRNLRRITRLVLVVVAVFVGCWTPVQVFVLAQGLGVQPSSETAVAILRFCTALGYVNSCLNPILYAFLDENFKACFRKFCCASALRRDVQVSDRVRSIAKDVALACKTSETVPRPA
T9 sequence (Q6W5P4 whole entry): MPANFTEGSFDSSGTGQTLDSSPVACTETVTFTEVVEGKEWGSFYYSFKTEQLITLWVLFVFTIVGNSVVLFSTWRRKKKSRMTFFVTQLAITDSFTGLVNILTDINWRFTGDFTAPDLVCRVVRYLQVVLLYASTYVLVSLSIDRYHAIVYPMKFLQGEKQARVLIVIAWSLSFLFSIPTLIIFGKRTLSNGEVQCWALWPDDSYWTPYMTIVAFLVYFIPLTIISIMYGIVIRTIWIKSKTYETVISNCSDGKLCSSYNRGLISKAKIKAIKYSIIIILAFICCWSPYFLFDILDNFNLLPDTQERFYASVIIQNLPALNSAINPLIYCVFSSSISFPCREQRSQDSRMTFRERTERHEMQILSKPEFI
T8 sequence (Q13304 whole entry): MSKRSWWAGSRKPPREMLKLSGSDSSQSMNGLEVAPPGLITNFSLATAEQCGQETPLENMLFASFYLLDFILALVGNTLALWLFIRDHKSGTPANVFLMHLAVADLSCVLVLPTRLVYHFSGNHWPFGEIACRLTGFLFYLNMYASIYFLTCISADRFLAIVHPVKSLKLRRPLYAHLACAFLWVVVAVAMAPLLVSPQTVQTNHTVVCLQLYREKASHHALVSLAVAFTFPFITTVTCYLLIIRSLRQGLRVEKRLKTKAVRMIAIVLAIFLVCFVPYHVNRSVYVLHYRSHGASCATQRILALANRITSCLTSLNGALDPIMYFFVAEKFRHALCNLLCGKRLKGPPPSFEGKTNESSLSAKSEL
T5 sequence (P32249 whole entry): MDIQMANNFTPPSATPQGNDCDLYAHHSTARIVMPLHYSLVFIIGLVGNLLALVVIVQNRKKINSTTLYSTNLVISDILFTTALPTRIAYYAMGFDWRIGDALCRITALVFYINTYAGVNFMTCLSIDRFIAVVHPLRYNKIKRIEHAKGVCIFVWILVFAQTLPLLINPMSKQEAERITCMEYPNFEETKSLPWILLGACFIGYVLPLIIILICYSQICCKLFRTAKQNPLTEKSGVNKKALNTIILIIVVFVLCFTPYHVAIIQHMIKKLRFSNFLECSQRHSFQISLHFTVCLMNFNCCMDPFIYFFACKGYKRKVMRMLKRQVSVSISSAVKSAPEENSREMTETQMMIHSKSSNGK
T6 sequence (O43193 whole entry): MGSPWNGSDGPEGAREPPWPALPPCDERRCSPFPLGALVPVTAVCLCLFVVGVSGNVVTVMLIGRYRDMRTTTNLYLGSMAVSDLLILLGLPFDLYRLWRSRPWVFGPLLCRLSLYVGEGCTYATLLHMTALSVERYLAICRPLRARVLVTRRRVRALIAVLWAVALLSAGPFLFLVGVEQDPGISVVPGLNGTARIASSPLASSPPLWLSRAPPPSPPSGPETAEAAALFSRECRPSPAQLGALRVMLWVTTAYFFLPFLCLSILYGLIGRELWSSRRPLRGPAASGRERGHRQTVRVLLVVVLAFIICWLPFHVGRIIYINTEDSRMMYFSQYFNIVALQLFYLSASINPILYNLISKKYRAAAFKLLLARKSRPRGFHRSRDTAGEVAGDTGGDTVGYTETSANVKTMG
Sequence of GPR55 (Q9Y2T6 whole entry): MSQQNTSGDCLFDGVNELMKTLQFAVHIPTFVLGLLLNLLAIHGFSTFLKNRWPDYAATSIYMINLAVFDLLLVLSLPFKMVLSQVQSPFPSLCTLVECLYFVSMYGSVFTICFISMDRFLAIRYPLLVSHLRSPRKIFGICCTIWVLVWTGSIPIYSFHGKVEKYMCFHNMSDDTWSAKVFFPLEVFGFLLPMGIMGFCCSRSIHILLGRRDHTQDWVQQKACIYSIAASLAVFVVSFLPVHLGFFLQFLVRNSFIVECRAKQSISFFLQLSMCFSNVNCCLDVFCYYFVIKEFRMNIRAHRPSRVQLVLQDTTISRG
Sequence of GPR1 (Tango construct) (human) (P46091 whole entry): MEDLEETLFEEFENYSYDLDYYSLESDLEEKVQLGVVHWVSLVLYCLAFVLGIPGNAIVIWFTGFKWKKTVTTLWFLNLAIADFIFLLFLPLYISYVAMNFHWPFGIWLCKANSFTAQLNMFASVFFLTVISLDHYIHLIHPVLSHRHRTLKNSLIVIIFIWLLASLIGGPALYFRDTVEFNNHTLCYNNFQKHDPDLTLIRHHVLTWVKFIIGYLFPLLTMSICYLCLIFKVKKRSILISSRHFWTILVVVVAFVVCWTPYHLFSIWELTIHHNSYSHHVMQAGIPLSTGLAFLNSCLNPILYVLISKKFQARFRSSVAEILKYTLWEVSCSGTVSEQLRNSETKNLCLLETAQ
Sequence of GPR1 (PathHunter cells) (P46091 whole entry): as above

CSCC[C@H](NC(=O)[C@H](Cc1ccccc1)NC(=O)CNC(=O)CNC(=O)[C@@H](N)Cc1ccc(O)cc1)C(=O)N[C@@H](CCCNC(=N)N)C(=O)N[C@@H](CCCNC(=N)N)C(=O)N[C@H](C(=O)NCC(=O)N[C@@H](CCCNC(=N)N)C(=O)N1CCC[C@H]1C(=O)N[C@@H](CCC(=O)O)C(=O)N[C@@H](Cc1c[nH]c2ccccc12)C(=O)N[C@@H](Cc1c[nH]c2ccccc12)C(=O)N[C@@H](CCSC)C(=O)N[C@@H](CC(=O)O)C(=O)N[C@@H](Cc1ccc(O)cc1)C(=O)N[C@@H](CCC(N)=O)C(=O)N[C@@H](CCCCN)C(=O)N[C@@H](CCCNC(=N)N)C(=O)N[C@@H](Cc1ccc(O)cc1)C(=O)NCC(=O)NCC(=O)N[C@@H](Cc1ccccc1)C(=O)N[C@@H](CC(C)C)C(=O)O)C(C)C [Peptide 158, Peptide E] (H-YGGFMRRVGRPEWWMDYQKRYGGFL-OH)
EC50 [1]: > 10 µM | EC50 ([1]; pEC50, DMR (peak), BB3, mean, SEM and n): 72.4 µM | Emax, Internalization (AUC) [2]: 16.0 | EC50 ([3]; BB3, mean, SEM and n, read-out: pEC50, Tango (fold over basal) (converted)): 93.3 µM | EC50 ([3]; HTLA cells transiently transfected, overnight stimulation, luciferase, mean ± SEM of 3-4 independent experiments in triplicate, read-out: pEC50, β-arrestin recruitment (Tango), BB3 (converted)): > 10 µM | Emax, IP1 [4]: 164.0 nM | EC50 ([4]; pEC50, IP1 (nM)): 6760 nM | Confirmation of known target in Tango [5]: kappa, mu | Emax, Tango (fold over basal) ([6]; n = 3): 5.0 fold over basal | EC50 ([6]; n = 3, read-out: pEC50, Tango (fold over basal) (converted)): 1350 nM

Nc1nc(NCc2ccccc2)nc(-c2ccccc2CO)n1 [ZINC67740571 (ogerin)]
Comment (response in DMR / internalization assays) [7]: Robust response in DMR, no response in internalization assay | Active in DMR/internalization ([7]; reported ligand tested on receptor-expressing cell line): Yes (DMR)

KGGFSFRF [Peptide 31]
Comment, Tango (fold over basal) [8]: Response >1uM; part of QRFP43 | Emax, Tango (fold over basal) [9]: 1.7 fold over basal | pEC50, Tango (fold over basal) [9]: 8.61

Motilin
Confirmed? (confirmation of b-arrestin recruitment) [10]: Yes

NWTPQAMLYLKGAQ [Peptide 95]
Emax, Tango (fold over basal) [11]: 1.4 fold over basal | pEC50, Tango (fold over basal) [11]: 6.57

Neuropeptide S (SFRNGVGTGMKKTSFQRAKS)
Confirmed? (confirmation of b-arrestin recruitment) [12]: No

Neurotensin
Confirmed? (confirmation of b-arrestin recruitment) [13]: No | Confirmed? (confirmation of b-arrestin recruitment) ([14]; Tango): Yes | Notes (b-arrestin recruitment response) ([14]; validation): Neurotensin not cyclized; weak activation in validation

Nociceptin/orphanin FQ
Confirmed? (confirmation of b-arrestin recruitment) [15]: Yes

Orexin-B
Confirmed? (confirmation of b-arrestin recruitment) [16]: Yes

PACAP27 (peptide)
pEC50 at GPR55 (internalization or mass redistribution; assay not given) [17]: 9.51 pEC50

Pancreatic hormone (PH)
Confirmed? (confirmation of b-arrestin recruitment) [18]: No

Peptide 141 (Osteocrin_(-2-19))
pEC50 in PathHunter β-arrestin recruitment assay [19]: 6.18 pEC50 | pEC50 in Tango β-arrestin recruitment assay [20]: 5.6 pEC50

Peptide YY (PYY)
Confirmed? (confirmation of b-arrestin recruitment) [18]: No

PrRP-31
Confirmed? (confirmation of b-arrestin recruitment) ([21]; endogenous ligand(s) included in peptide library, Tango): Yes | Notes (b-arrestin recruitment response) ([21]; screen and validation): No response in screen, small response in validation | pKi_value [22]: 9.2

RHVNHSATEALGELRERAPGQGTNGFQLLRHAV [Peptide 192]
Emax, Tango (fold over basal) [23]: 1.3 fold over basal | pEC50, Tango (fold over basal) [23]: 9.08

SFRNGVGSGVKKTSF [Peptide 107]
Emax, Tango (fold over basal) [24]: 2.2 fold over basal | pEC50, Tango (fold over basal) [24]: 6.03

TLGPQAHSLALQSVDLLFRP [Peptide 132]
Emax, Tango (fold over basal) [25]: 8.8 fold over basal | pEC50, Tango (fold over basal) [25]: 4.82

VLDQLSA [Peptide 25]
Emax, Tango (fold over basal) [26]: 5.0 fold over basal | pEC50, Tango (fold over basal) [26]: 5.58
